# Assay: Relaxation dynamics of hyperpolarized [1-13C]pyruvate (build-up time Tb, T1)
# Assay type: physicochemical
# Excerpt: In addition, the relaxation dynamics of the [1-^13C]pyruvate were also studied.
# In addition, relaxation dynamics at earth field and 1.8 T are about the same as a non-fluorinated SABRE catalyst T1=28.9±1.6 s and 66.5±7 s, respectively.
# In addition, relaxation dynamics at earth field and 1.8 T are about the same as a non-fluorinated SABRE catalyst T1=9.0±1.9 s and 16.0±1.4 s, respectively.
compound,measurement,setting,value
"C[13C](=O)C(=O)O [[1-^13C]pyruvate, Sodium [1-^13C]-pyruvate]",total P13C (bound+free) build-up time Tb,"NFBME / deuterated methanol mixture, catalyst of Example 4",3.0 ± 0.8 s
same,total P13C (bound+free) build-up time Tb,"methanol, catalyst of Example 4, DMSO co-ligand",6.6 ± 3.0 s

# From patent publication US20250244419A1, “INFUSION DEVICE FOR THE PREPARATION AND DELIVERY OF MRI PROBES” (The United States of America, as represented by the …, priority 2022, published 2025)
